Laboratory results taken from ChEMBL document CHEMBL5465560, “Selectivity Literature for EUbOPEN Chemogenomic Library” (2024).
Blank lines part the entries; values can stand above or below the compound they belong to.

Columns and labels:
hERG (KCNH2) = hERG (KCNH2) (Homo sapiens, UniProt Q12809); test: Selectivity interaction (Panel of kinases, GPCRs, ion channels and transporters (enzymatic assay)) EUB0000266bCl KCNH2
[1] = target: Ribosomal protein S6 kinase alpha-2 (Homo sapiens) (UniProt Q15349); test: Selectivity interaction (ActivX KiNativ screen (kinase selectivity in THP-1 cell lysates)) EUB0000639a RPS6KA2; format: subcellular; conditions: lysate
[2] = target: MAP kinase-interacting serine/threonine-protein kinase 1 (Homo sapiens) (UniProt Q9BUB5); test: Selectivity interaction (ProQinase) EUB0000171b MKNK1
[3] = target: Mitogen-activated protein kinase kinase kinase 14 (Homo sapiens) (UniProt Q99558); test: Selectivity interaction (ProQinase) EUB0000171b MAP3K14
[4] = target: Homeodomain-interacting protein kinase 2 (Homo sapiens, UniProt Q9H2X6); test: Selectivity interaction (KinomeScan (DiscoverX)) EUB0000695a HIPK2; conditions: at 100 nM
[5] = target: Tyrosine-protein kinase Fyn (Homo sapiens) (UniProt P06241); conditions: at 10 µM
[6] = target: Phosphatidylinositol 4,5-bisphosphate 3-kinase catalytic subunit alpha isoform (Homo sapiens) (UniProt P42336); conditions: at 10 µM
[7] = target: T1, Ephrin type-B receptor 2 (Homo sapiens) (UniProt P29323); test: Selectivity interaction (KinomeScan (DiscoverX)) EUB0001049a EPHB2; conditions: at 1 µM
T1 sequence (whole entry): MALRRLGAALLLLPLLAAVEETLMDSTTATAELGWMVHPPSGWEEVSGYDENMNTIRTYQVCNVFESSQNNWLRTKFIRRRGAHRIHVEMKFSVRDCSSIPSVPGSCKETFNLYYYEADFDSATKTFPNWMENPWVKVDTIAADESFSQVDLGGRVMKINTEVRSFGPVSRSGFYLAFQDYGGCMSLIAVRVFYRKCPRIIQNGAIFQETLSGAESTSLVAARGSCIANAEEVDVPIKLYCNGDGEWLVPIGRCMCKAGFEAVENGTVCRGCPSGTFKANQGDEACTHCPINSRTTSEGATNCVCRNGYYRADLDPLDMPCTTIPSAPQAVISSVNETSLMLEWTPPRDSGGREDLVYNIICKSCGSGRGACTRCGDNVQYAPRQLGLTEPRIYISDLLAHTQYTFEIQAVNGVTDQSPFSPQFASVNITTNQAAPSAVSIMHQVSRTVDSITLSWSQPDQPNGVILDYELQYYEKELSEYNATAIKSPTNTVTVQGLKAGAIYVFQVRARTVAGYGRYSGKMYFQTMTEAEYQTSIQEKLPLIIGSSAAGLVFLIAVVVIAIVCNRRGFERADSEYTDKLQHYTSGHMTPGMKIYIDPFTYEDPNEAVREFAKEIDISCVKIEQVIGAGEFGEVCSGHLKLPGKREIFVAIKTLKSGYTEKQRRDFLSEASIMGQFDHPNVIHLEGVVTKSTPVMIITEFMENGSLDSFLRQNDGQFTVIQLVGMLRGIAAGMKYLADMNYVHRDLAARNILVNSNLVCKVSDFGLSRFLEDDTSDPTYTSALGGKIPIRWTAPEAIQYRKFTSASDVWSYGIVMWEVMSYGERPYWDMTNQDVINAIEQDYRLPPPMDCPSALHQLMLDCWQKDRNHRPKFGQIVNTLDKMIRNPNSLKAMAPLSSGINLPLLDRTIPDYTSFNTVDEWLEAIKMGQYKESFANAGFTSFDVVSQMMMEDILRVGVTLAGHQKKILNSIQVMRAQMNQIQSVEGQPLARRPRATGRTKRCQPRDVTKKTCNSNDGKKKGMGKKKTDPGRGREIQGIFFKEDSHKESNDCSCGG

[8] = target: T2, Activin receptor type-1B (Homo sapiens) (UniProt P36896); test: Selectivity interaction (Ambit KINOMEscan and KiNATiv profiling in Jurkat cells) EUB0000090b ACVR1B; format: cell-based; conditions: at 1 µM
T2 sequence (whole entry): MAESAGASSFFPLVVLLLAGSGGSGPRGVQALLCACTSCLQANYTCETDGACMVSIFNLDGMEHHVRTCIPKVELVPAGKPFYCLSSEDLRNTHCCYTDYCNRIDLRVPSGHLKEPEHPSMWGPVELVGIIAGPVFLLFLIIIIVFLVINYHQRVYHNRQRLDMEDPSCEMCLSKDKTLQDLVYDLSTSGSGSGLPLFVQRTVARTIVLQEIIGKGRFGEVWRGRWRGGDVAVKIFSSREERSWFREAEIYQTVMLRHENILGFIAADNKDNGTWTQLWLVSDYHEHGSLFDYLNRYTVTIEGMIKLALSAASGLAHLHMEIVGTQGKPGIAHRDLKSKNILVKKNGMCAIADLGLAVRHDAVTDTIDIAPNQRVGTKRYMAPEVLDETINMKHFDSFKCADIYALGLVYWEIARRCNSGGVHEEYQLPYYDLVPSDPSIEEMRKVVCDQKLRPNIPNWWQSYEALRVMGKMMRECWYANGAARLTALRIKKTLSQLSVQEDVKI

[9] = target: Serine/threonine-protein kinase MRCK gamma (Homo sapiens) (UniProt Q6DT37); test: Selectivity interaction (KinomeScan (DiscoverX)) EUB0000655a CDC42BPG; conditions: at 10 µM
[10] = target: Serine/threonine-protein kinase Chk1 (Homo sapiens, UniProt O14757)
[11] = target: Serine/threonine-protein kinase Chk2 (Homo sapiens) (UniProt O96017); test: Selectivity interaction (KinomeScan (DiscoverX)) EUB0000092b CHEK2; conditions: at 10 µM
[12] = target: T3, Dual specificity mitogen-activated protein kinase kinase 3 (Homo sapiens) (UniProt P46734); test: Selectivity interaction (KinomeScan (DiscoverX)) EUB0000092b MAP2K3; conditions: at 10 µM
T3 sequence (whole entry): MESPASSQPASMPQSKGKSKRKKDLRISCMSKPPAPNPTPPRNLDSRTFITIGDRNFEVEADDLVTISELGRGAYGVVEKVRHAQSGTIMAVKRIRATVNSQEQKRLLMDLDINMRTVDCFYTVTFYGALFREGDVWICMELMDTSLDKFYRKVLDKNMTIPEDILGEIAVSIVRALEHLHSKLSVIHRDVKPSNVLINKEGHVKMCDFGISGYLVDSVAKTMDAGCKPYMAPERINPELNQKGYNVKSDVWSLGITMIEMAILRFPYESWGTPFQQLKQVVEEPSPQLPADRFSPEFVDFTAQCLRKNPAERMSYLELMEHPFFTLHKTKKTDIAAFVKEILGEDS

[13] = target: Mitogen-activated protein kinase 4 (Homo sapiens) (UniProt P31152); test: Selectivity interaction (KinomeScan (DiscoverX)) EUB0000092b MAPK4; conditions: at 10 µM
Sequence of Mitogen-activated protein kinase 4 (Homo sapiens) (P31152 whole entry): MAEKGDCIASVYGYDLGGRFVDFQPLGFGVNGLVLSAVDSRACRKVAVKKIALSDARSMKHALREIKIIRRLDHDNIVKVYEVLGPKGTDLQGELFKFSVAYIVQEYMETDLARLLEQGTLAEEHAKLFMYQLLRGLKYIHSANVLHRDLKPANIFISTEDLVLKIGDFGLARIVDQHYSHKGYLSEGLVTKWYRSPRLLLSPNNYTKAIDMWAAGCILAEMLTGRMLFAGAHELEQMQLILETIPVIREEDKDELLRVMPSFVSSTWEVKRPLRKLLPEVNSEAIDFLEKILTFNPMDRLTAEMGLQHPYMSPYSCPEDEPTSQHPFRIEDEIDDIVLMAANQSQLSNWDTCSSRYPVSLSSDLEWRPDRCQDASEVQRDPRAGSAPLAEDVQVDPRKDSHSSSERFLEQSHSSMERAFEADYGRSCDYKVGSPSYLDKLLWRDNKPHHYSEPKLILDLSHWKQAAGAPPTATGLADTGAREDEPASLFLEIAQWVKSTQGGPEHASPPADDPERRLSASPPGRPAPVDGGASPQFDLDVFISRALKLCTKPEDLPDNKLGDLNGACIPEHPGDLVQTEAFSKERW

Sequence of Ribosomal protein S6 kinase alpha-2 (Homo sapiens) (Q15349 whole entry): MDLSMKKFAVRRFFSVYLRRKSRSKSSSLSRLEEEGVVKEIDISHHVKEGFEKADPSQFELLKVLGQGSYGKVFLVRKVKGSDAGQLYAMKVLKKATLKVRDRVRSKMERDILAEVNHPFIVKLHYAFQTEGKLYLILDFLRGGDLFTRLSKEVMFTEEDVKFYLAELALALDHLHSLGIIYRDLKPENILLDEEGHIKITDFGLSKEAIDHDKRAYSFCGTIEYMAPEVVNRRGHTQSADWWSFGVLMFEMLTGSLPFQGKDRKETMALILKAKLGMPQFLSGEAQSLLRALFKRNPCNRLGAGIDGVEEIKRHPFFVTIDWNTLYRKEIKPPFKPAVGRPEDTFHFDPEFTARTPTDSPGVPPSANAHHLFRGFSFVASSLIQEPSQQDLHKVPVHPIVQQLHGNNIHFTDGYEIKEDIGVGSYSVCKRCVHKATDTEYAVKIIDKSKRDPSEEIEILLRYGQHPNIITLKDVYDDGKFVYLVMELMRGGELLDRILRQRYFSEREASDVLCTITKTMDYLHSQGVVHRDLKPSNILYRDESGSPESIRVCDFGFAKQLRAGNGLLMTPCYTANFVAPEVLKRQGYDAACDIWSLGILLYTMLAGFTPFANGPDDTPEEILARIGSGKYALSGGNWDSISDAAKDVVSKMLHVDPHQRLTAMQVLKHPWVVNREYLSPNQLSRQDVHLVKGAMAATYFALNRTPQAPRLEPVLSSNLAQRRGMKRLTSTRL
Sequence of Mitogen-activated protein kinase kinase kinase 14 (Homo sapiens) (Q99558 whole entry, looked up): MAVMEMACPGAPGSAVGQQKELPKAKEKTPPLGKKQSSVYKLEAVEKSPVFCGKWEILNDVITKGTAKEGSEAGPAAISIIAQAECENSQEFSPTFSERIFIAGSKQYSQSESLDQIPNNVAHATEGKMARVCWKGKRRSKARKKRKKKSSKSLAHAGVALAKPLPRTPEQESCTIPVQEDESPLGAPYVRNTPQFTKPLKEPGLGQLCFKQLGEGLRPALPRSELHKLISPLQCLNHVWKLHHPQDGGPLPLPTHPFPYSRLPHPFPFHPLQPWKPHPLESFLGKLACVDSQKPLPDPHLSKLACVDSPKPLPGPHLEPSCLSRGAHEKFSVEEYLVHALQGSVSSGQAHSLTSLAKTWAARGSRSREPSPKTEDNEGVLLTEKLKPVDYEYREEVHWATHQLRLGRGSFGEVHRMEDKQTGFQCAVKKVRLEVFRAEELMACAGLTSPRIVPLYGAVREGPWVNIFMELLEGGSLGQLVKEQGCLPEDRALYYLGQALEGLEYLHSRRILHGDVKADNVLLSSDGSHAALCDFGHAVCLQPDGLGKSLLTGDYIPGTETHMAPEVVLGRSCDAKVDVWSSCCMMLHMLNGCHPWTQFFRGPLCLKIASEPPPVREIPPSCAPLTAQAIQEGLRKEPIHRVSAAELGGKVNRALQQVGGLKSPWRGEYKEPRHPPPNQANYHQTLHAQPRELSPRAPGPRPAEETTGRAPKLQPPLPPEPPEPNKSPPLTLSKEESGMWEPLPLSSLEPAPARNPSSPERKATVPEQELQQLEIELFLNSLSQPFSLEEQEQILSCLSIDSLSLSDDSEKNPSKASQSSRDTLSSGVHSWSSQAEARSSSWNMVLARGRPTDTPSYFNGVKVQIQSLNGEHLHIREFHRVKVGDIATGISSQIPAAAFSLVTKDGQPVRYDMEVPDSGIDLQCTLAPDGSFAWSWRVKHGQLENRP
Sequence of MAP kinase-interacting serine/threonine-protein kinase 1 (Homo sapiens) (Q9BUB5 whole entry, looked up): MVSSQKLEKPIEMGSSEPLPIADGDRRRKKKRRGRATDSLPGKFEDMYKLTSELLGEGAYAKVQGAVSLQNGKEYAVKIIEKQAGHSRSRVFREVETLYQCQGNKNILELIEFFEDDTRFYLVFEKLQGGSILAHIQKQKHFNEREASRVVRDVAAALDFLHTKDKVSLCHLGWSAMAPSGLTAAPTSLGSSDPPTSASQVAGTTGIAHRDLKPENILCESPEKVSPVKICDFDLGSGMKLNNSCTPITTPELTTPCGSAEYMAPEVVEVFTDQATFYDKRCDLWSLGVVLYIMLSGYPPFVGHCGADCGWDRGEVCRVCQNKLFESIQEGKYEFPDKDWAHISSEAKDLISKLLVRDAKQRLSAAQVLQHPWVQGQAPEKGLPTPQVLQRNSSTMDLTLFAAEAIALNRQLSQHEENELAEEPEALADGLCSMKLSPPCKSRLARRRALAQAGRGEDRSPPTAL
Sequence of Serine/threonine-protein kinase Chk1 (O14757 whole entry): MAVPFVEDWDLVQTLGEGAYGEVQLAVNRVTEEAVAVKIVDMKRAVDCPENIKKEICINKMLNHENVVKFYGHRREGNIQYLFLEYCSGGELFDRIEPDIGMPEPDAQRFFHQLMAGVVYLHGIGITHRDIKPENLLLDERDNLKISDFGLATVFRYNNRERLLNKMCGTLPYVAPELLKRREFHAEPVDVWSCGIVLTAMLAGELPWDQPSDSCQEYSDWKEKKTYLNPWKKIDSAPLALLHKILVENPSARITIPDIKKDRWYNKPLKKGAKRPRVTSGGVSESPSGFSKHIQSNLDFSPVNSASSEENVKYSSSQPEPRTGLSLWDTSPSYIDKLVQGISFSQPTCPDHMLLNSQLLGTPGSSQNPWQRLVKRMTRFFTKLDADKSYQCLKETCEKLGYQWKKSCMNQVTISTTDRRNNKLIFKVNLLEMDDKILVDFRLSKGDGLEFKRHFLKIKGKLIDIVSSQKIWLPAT
Sequence of Homeodomain-interacting protein kinase 2 (Q9H2X6 whole entry, looked up): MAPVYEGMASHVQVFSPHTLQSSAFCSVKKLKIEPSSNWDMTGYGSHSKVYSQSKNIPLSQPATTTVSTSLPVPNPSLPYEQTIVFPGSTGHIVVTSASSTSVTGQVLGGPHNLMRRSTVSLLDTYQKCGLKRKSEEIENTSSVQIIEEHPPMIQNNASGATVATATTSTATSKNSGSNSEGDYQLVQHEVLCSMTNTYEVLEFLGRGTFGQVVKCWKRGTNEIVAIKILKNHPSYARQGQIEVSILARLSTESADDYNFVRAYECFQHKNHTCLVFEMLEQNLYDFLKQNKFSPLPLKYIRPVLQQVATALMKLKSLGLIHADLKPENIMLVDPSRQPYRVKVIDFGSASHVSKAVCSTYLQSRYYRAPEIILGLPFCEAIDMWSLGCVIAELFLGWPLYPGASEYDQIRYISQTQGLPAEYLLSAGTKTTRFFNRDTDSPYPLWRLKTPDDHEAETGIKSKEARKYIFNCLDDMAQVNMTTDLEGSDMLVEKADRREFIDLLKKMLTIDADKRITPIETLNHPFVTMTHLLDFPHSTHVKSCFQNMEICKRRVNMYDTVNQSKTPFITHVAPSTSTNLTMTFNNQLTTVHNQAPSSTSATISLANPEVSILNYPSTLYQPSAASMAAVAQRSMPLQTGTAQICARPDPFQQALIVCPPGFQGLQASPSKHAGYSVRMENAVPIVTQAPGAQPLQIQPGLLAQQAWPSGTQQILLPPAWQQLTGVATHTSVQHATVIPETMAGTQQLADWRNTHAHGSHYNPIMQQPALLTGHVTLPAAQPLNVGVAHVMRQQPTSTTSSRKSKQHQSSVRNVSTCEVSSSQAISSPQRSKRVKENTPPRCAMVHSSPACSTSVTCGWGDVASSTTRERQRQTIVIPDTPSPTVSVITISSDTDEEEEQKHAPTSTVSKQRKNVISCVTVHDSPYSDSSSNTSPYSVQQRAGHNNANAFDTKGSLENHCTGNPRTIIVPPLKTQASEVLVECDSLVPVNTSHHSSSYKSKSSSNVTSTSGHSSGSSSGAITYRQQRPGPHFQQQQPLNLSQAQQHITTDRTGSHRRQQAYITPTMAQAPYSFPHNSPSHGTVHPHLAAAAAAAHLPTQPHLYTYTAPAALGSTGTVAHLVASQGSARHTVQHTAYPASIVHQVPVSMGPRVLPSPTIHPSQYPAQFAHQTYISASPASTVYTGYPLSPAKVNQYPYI
Sequence of Tyrosine-protein kinase Fyn (Homo sapiens) (P06241 2-537 limits assumed): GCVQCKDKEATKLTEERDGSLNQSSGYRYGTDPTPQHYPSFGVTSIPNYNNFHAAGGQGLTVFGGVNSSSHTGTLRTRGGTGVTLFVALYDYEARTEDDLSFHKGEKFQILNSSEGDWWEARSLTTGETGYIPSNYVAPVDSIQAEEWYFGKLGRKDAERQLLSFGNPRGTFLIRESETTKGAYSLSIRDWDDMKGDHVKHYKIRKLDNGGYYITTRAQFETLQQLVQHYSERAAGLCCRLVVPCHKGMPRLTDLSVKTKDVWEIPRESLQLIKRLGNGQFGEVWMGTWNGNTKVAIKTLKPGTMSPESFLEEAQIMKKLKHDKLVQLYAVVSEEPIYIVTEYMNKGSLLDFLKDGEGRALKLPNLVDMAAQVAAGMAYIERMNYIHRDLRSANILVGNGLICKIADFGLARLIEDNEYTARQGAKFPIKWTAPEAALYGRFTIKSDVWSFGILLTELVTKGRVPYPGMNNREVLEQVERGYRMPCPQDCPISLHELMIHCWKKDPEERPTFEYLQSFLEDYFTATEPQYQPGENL

Structure (SMILES): CCn1c(-c2nc3cc(C(=O)N4CCCC(N)C4)ccc3n2C)cc2ccccc21 (stereo not given)
XC50 (hERG (KCNH2)): 6.31 µM

% of inhibition ([1]; at 0.01 µM): 16.9%
% of inhibition ([1]; at 0.04 µM): 12.4%
% of inhibition ([1]; at 0.2 µM): 10.3%
% of inhibition ([1]; at 1 µM): 8.6%
% of inhibition ([1]; at 5 µM): 11.7%
Structure (SMILES): CC[C@@H]1[C@H](F)C(=O)N[C@@H]1COc1nccc2cc(C(N)=O)c(OC)cc12 [ZIMLOVISERTIB]

% of control ([2]; at 1 µM): 90%
% of control ([2]; at 5 µM): 55%
% of control ([3]; at 1 µM): 91%
% of control ([3]; at 5 µM): 87%
Structure (SMILES): C=CC(=O)Nc1cccc(C(=O)Nc2ccc(Nc3cc(-c4[nH]c(SC)nc4C)ccn3)cc2)c1

Structure (SMILES): Cc1cc(F)c(C(=O)Nc2cccc(-c3nncn3C(C)C)n2)cc1-n1cnc(C2CC2)c1
% of control [4]: 83%

Structure (SMILES): COCC(=O)NC/C=C/c1ccc2ncnc(Nc3ccc(Oc4ccc(C)nc4)c(C)c3)c2c1 [CP-724714]
% of control [5]: 100%
% of control [6]: 100%

Structure (SMILES): COc1cc(Nc2nc(C)cc(-c3cnn4nc(OC)ccc34)n2)cc(C(F)(F)F)c1
% of control [7]: 92%

Structure (SMILES): CN(C)C/C=C/C(=O)Nc1ccc(C(=O)N2CCCC(Nc3ncc(Cl)c(-c4c[nH]c5ccccc45)n3)C2)cc1 (stereo not given)
% of control [8]: 96%

Structure (SMILES): CN(C)CCOc1ccc(-c2nc(-c3ccncc3)c(-c3ccc4c(c3)CC/C4=N\O)[nH]2)cc1
% of control [9]: 32%

IC50 [10]: > 10 µM
Structure (SMILES): CCc1cccc(CC)c1NC(=O)c1nn(C)c2c1CCc1cnc(Nc3ccc(C(=O)NC4CCN(C)CC4)cc3OC(F)(F)F)nc1-2

Structure (SMILES): CCC(=O)N1CCN(c2ccc(-n3c(=O)ccc4cnc5ccc(-c6cnc7ccccc7c6)cc5c43)cc2C(F)(F)F)CC1
% of control [11]: 100%
% of control [12]: 80%
% of control [13]: 80%
